# Data from ChEMBL document CHEMBL1143187, “Synthesis of and evaluation of lipid A modification by 4-substituted 4-deoxy arabinose analogs as potential inhibitors of bacterial polymyxin resistance” (Bioorg Med Chem Lett, 2008).
# Active and inactive are the calls of the source. The calls are words filed in the database; no cut-off is given here.
# Experiments:
# [1] = tested on: Escherichia coli; assay: Inhibition of Escherichia coli ArnB upto 100 uM
# [2] = tested on: Escherichia coli; assay: Inhibition of Escherichia coli ArnA upto 100 uM
# [3] = biological target: Undecaprenyl phosphate-alpha-4-amino-4-deoxy-L-arabinose arabinosyl transferase (Salmonella typhimurium (strain LT2 / SGSC1412 / ATCC 700720)) (UniProt O52327); assay: Inhibition of PmrK/ArnT in Salmonella Typhimurium JSG435 membranes assessed as effect on transfer of aminoarabinose tp lipid A; settings: Salmonella enterica subsp. enterica serovar Typhimurium
Structure (SMILES),Activity [1],Activity [2],Activity [3]
COP(=O)(N[C@H]1CO[C@H](OP(=O)(O)O)[C@H](OC(C)=O)[C@H]1OC(C)=O)OC,Active,Active,
CC(=O)O[C@@H]1[C@@H](OC(C)=O)[C@@H](OP(=O)(O)O)OC[C@@H]1N=[N+]=[N-],Active,Active,
CC(=O)OC1OC[C@H](N=[N+]=[N-])[C@H](OC(C)=O)[C@H]1OC(C)=O (stereo partly drawn),Active,Active,Active

# Next, values leading:
Activity [1],Activity [2],Activity [3],Structure (SMILES)
Active,Active,,COP(=O)(N[C@H]1CO[C@H](OP(=O)(OCc2ccccc2)OCc2ccccc2)[C@H](OC(C)=O)[C@H]1OC(C)=O)OC
Active,Active,,CCCCCCCCN.CCOP(=O)(Cc1ccccc1)N[C@H]1CO[C@H](OP(=O)(O)OP(=O)(O)OC[C@H]2O[C@@H](n3ccc(=O)[nH]c3=O)[C@H](O)[C@@H]2O)[C@H](OC(C)=O)[C@H]1OC(C)=O (stereo partly drawn)
Active,Active,,CC(=O)O[C@@H]1[C@@H](OC(C)=O)[C@@H](OP(=O)(O)OP(=O)(O)OC[C@H]2O[C@@H](n3ccc(=O)[nH]c3=O)[C@H](O)[C@@H]2O)OC[C@@H]1N=[N+]=[N-].CCCCCCCCCN
